Results taken from the supplement of paper PMC10331698.
± gives the standard deviation of the averaged measurements.

Legend:
Assay in all cases: level (log10 ratio to DMSO vehicle control); higher = higher biomarker level / cell amount than vehicle control
[1] = compound: C=C(C)C(=O)OCCC(F)(F)C(F)(F)C(F)(F)C(F)(F)C(F)(F)C(F)(F)F [6:2 Fluorotelomer methacrylate]; details: in DMSO
Procedure: (§1)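 BioMAP Diversity Plus panel of 12 human primary cell co-culture systems (3C, 4H, LPS, SAg, BT, BF4T, BE3C, CASM3C, HDF3CGF, KF3CT, MyoF, Mphg). Compounds were added 1 h before stimulation and left for 24 h (MyoF 48 h; BT 72 h for soluble read-outs or 6 d for IgG). Biomarkers were read by ELISA, cytotoxicity by SRB, PBMC viability and proliferation by Alamar Blue. Each well value was divided by the mean of 8 DMSO control wells on the same plate and log10 transformed; duplicate blinded samples were tested at 4 concentrations.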

[2] = compound: C=CC(=O)OCC(F)(F)C(F)(F)C(F)(F)COC(=O)C=C [1H,1H,5H,5H-Perfluoro-1,5-pentanediol diacrylate]; details: 6700 nM; in DMSO
Procedure: as §1

[3] = compound: COC(=O)C(F)(F)C(F)(F)OC(F)(C(F)(F)F)C(F)(F)OC(F)=C(F)F [Methyl perfluoro(3-(1-ethenyloxypropan-2-yloxy)propanoate)]; details: in DMSO
Procedure: as §1

[4] = compound: FC(F)(F)C(F)(F)C(F)(F)C(F)(F)C(F)(F)C(F)(F)C(F)(F)I [1-Iodopentadecafluoroheptane]; details: in DMSO
Procedure: as §1

[5] = compound: FC(F)(F)C(F)(F)C(F)(F)C(F)(F)C(F)(F)C(F)(F)CC1CO1 [3-(Perfluorohexyl)-1,2-epoxypropane]; details: in DMSO
Procedure: as §1

[6] = compound: FC(F)(F)C(F)(F)C(F)(F)CC1CO1 [1H,1H-Heptafluorobutyl epoxide]; details: in DMSO
Procedure: as §1

Heptafluorobutyl iodide = compound: FC(F)(F)C(F)(F)C(F)(F)CI [Heptafluorobutyl iodide]; details: in DMSO
Procedure: as §1

[7] = compound: FC(F)(F)C(F)(F)CNCC(F)(F)C(F)(F)F [Bis(1H,1H-perfluoropropyl)amine]; details: in DMSO
Procedure: as §1

Octafluoroadipamide = compound: NC(=O)C(F)(F)C(F)(F)C(F)(F)C(F)(F)C(N)=O [Octafluoroadipamide]; details: in DMSO
Procedure: as §1

Nonafluoropentanamide = compound: NC(=O)C(F)(F)C(F)(F)C(F)(F)C(F)(F)F [Nonafluoropentanamide]; details: in DMSO
Procedure: as §1

[8] = compound: NC(=O)C(F)(F)C(F)(F)C(F)(F)C(F)F; details: in DMSO
Procedure: as §1

[9] = compound: NS(=O)(=O)C(F)(F)C(F)(F)C(F)(F)C(F)(F)C(F)(F)C(F)(F)F [Perfluorohexanesulfonamide]; details: in DMSO
Procedure: as §1

[10] = compound: O=C(O)C(F)(F)C(F)(F)C(F)(F)C(F)(F)C(F)(F)C(F)(F)C(F)(F)C(F)(F)C(F)(F)C(F)F [11-H-Perfluoroundecanoic acid]; details: in DMSO
Procedure: as §1

[11] = compound: O=C(O)C=CC(F)(C(F)(F)F)C(F)(F)F [3-(Perfluoroisopropyl)-2-propenoic acid]; details: in DMSO
Procedure: as §1

[12] = compound: O=S(=O)(Cl)C(F)(F)C(F)(F)C(F)(F)C(F)(F)C(F)(F)C(F)(F)C(F)(F)C(F)(F)F [Perfluoro-1-octanesulfonyl chloride]; details: in DMSO
Procedure: as §1

[13] = compound: O=S(=O)(F)C(F)(F)C(F)(F)C(F)(F)C(F)(F)C(F)(F)C(F)(F)C(F)(F)C(F)(F)F [Perfluorooctanesulfonyl fluoride]; details: in DMSO
Procedure: as §1

[14] = compound: O=S(=O)(O)C(F)(F)C(F)(F)C(F)(F)C(F)(F)C(F)(F)C(F)(F)C(F)(F)C(F)(F)C(F)(F)C(F)(F)F [Sodium perfluorodecanesulfonate]; details: in DMSO
Procedure: as §1

[15] = compound: O=S(=O)(O)CCC(F)(F)C(F)(F)C(F)(F)C(F)(F)C(F)(F)C(F)(F)F [6:2 Fluorotelomer sulfonic acid]; details: in DMSO
Procedure: as §1

Hexafluoroamylene glycol = compound: OCC(F)(F)C(F)(F)C(F)(F)CO [Hexafluoroamylene glycol]; details: in DMSO
Procedure: as §1

Test System: BE3C:IL-1alpha
- level (log10) ([1]; 6700 nM): 0.0025 ± 0.016
- level (log10) ([1]; 20000 nM): -0.0125 ± 0.0035
- level (log10) ([1]; 60000 nM): 0.003
- level (log10) [2]: -0.0415 ± 0.03
- level (log10) ([3]; 6700 nM): -0.0175 ± 0.005
- level (log10) ([3]; 20000 nM): -0.005 ± 0.011
- level (log10) ([4]; 6700 nM): -0.0175 ± 0.005
- level (log10) ([4]; 20000 nM): -0.0185 ± 0.0021
- level (log10) ([5]; 6700 nM): -0.0215 ± 0.0021
- level (log10) ([5]; 20000 nM): -0.003
- level (log10) ([5]; 60000 nM): 0 ± 0.0014
- level (log10) ([6]; 6700 nM): 0.024 ± 0.024
- level (log10) ([6]; 20000 nM): 0.01 ± 0.051
- level (log10) ([6]; 60000 nM): 0.0265 ± 0.066
- level (log10) (Heptafluorobutyl iodide; 6700 nM): 0.0015 ± 0.037
- level (log10) (Heptafluorobutyl iodide; 20000 nM): -0.0225 ± 0.019
- level (log10) (Heptafluorobutyl iodide; 60000 nM): -0.001 ± 0.014
- level (log10) ([7]; 6700 nM): 0.0045 ± 0.022
- level (log10) ([7]; 20000 nM): 0.0005 ± 0.018
- level (log10) ([7]; 60000 nM): 0.007 ± 0.018
- level (log10) (Octafluoroadipamide; 6700 nM): 0.0085 ± 0.012
- level (log10) (Octafluoroadipamide; 20000 nM): -0.0105 ± 0.0064
- level (log10) (Octafluoroadipamide; 60000 nM): 0.0145 ± 0.033
- level (log10) (Nonafluoropentanamide; 6700 nM): -0.002 ± 0.0071
- level (log10) (Nonafluoropentanamide; 20000 nM): 0.002 ± 0.014
- level (log10) (Nonafluoropentanamide; 60000 nM): 0.0105 ± 0.00071
- level (log10) ([8]; 6700 nM): 0.0235 ± 0.016
- level (log10) ([8]; 20000 nM): -0.008 ± 0.0085
- level (log10) ([8]; 60000 nM): 0.015 ± 0.065
- level (log10) ([9]; 6700 nM): -0.0195 ± 0.00071
- level (log10) ([9]; 20000 nM): -0.022 ± 0.013
- level (log10) ([9]; 60000 nM): -0.0885 ± 0.016
- level (log10) ([10]; 6700 nM): 0.0285 ± 0.016
- level (log10) ([10]; 20000 nM): -0.42 ± 0.011
- level (log10) ([11]; 6700 nM): -0.001 ± 0.031
- level (log10) ([11]; 20000 nM): -0.0065 ± 0.0064
- level (log10) ([11]; 60000 nM): 0.0025 ± 0.005
- level (log10) ([12]; 6700 nM): 0.015 ± 0.0042
- level (log10) ([12]; 20000 nM): 0.0155 ± 0.0092
- level (log10) ([12]; 60000 nM): -0.523 ± 0.1
- level (log10) ([13]; 6700 nM): 0.004 ± 0.0042
- level (log10) ([13]; 20000 nM): -0.0115 ± 0.013
- level (log10) ([13]; 60000 nM): -0.007 ± 0.016
- level (log10) ([14]; 1500 nM): -0.007 ± 0.0085
- level (log10) ([14]; 4400 nM): 0.007 ± 0.023
- level (log10) ([14]; 13000 nM): -0.0495 ± 0.0078
- level (log10) ([14]; 40000 nM): -0.149 ± 0.0092
- level (log10) ([15]; 6700 nM): -0.0095 ± 0.021
- level (log10) ([15]; 20000 nM): -0.005 ± 0.0099
- level (log10) ([15]; 60000 nM): -0.0005 ± 0.0078
- level (log10) (Hexafluoroamylene glycol; 6700 nM): -0.002 ± 0.0085
- level (log10) (Hexafluoroamylene glycol; 20000 nM): 0.002
- level (log10) (Hexafluoroamylene glycol; 60000 nM): 0.0135 ± 0.0092

Test System: BE3C:MMP-9
- level (log10) ([1]; 6700 nM): 0.014 ± 0.0071
- level (log10) ([1]; 20000 nM): 0.015 ± 0.0042
- level (log10) ([1]; 60000 nM): 0.025 ± 0.011
- level (log10) [2]: -0.0485 ± 0.0078
- level (log10) ([3]; 6700 nM): -0.041 ± 0.038
- level (log10) ([3]; 20000 nM): -0.004 ± 0.0057
- level (log10) ([4]; 6700 nM): -0.014 ± 0.035
- level (log10) ([4]; 20000 nM): -0.0465 ± 0.015
- level (log10) ([5]; 6700 nM): -0.036 ± 0.0042
- level (log10) ([5]; 20000 nM): -0.036
- level (log10) ([5]; 60000 nM): -0.004 ± 0.042
- level (log10) ([6]; 6700 nM): -0.0065 ± 0.0078
- level (log10) ([6]; 20000 nM): 0.015 ± 0.014
- level (log10) ([6]; 60000 nM): -0.013 ± 0.0014
- level (log10) (Heptafluorobutyl iodide; 6700 nM): -0.005 ± 0.0014
- level (log10) (Heptafluorobutyl iodide; 20000 nM): -0.0085 ± 0.0064
- level (log10) (Heptafluorobutyl iodide; 60000 nM): 0.0115 ± 0.015
- level (log10) ([7]; 6700 nM): -0.026 ± 0.0042
- level (log10) ([7]; 20000 nM): -0.0175 ± 0.011
- level (log10) ([7]; 60000 nM): 0.009 ± 0.042
- level (log10) (Octafluoroadipamide; 6700 nM): -0.024 ± 0.021
- level (log10) (Octafluoroadipamide; 20000 nM): -0.0235 ± 0.015
- level (log10) (Octafluoroadipamide; 60000 nM): 0.0015 ± 0.029
- level (log10) (Nonafluoropentanamide; 6700 nM): -0.0405 ± 0.03
- level (log10) (Nonafluoropentanamide; 20000 nM): -0.026 ± 0.0071
- level (log10) (Nonafluoropentanamide; 60000 nM): -0.0095 ± 0.005
- level (log10) ([8]; 6700 nM): -0.007 ± 0.0014
- level (log10) ([8]; 20000 nM): -0.0045 ± 0.0092
- level (log10) ([8]; 60000 nM): 0.0095 ± 0.023
- level (log10) ([9]; 6700 nM): -0.0585 ± 0.015
- level (log10) ([9]; 20000 nM): -0.0435 ± 0.005
- level (log10) ([9]; 60000 nM): -0.131 ± 0.028
- level (log10) ([10]; 6700 nM): -0.058 ± 0.04
- level (log10) ([10]; 20000 nM): -0.277 ± 0.049
- level (log10) ([11]; 6700 nM): -0.018 ± 0.0042
- level (log10) ([11]; 20000 nM): -0.008 ± 0.0028
- level (log10) ([11]; 60000 nM): 0.007 ± 0.04
- level (log10) ([12]; 6700 nM): -0.018 ± 0.0042
- level (log10) ([12]; 20000 nM): 0.0275 ± 0.0078
- level (log10) ([12]; 60000 nM): -0.35 ± 0.037
- level (log10) ([13]; 6700 nM): -0.025 ± 0.024
- level (log10) ([13]; 20000 nM): -0.02 ± 0.0042
- level (log10) ([13]; 60000 nM): -0.026 ± 0.0071
- level (log10) ([14]; 1500 nM): -0.0125 ± 0.04
- level (log10) ([14]; 4400 nM): 0.0105 ± 0.005
- level (log10) ([14]; 13000 nM): -0.0785 ± 0.013
- level (log10) ([14]; 40000 nM): -0.302 ± 0.041
- level (log10) ([15]; 6700 nM): -0.004 ± 0.021
- level (log10) ([15]; 20000 nM): -0.0045 ± 0.0078
- level (log10) ([15]; 60000 nM): 0.016 ± 0.021
- level (log10) (Hexafluoroamylene glycol; 6700 nM): -0.014 ± 0.0099
- level (log10) (Hexafluoroamylene glycol; 20000 nM): -0.01 ± 0.0057
- level (log10) (Hexafluoroamylene glycol; 60000 nM): 0.008 ± 0.033
